In ChEMBL document CHEMBL3727356, “Therapeutic compounds and compositions” (2014):

Legend:
Pyruvate kinase PKLR [1] = biological target: Pyruvate kinase PKLR (Homo sapiens, UniProt P30613, R510Q); assay: Activation of PKR R510Q mutant (unknown origin) incubated for 60 mins in presence of ADP, PEP and NADH by Spectraax microplate reader based assay
Pyruvate kinase PKLR [2] = biological target: T1, Pyruvate kinase PKLR (Homo sapiens, UniProt P30613); assay: Activation of wild type PKR (unknown origin) incubated for 60 mins in presence of ADP, PEP and NADH by Spectraax microplate reader based assay
Pyruvate kinase PKLR [3] = biological target: Pyruvate kinase PKLR (Homo sapiens, UniProt P30613, R532W); assay: Activation of PKR R532W mutant (unknown origin) incubated for 60 mins in presence of ADP, PEP and NADH by Spectraax microplate reader based assay
Pyruvate kinase PKLR [4] = biological target: T1, Pyruvate kinase PKLR; assay: Activation of wild type PKR (unknown origin) by cell based assay

Measured: AC50

Pyruvate kinase PKLR (Homo sapiens, UniProt P30613, R532W), sequence (P30613 whole entry R532W): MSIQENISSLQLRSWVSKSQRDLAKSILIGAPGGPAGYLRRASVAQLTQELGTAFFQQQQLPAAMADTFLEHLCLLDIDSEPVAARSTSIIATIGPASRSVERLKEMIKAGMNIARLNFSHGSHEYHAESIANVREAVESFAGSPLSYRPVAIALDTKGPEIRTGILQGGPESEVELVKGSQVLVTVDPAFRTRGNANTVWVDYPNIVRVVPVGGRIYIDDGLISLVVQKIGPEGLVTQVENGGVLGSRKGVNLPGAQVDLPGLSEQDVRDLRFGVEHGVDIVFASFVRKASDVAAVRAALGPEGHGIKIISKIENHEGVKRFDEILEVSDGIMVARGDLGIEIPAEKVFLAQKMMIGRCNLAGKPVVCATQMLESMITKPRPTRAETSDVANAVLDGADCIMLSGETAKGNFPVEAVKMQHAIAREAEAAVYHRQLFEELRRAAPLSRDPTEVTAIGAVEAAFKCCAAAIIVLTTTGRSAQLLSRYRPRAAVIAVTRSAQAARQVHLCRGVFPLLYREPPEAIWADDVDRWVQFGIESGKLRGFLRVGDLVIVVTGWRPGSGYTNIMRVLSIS
Pyruvate kinase PKLR (Homo sapiens, UniProt P30613, R510Q), sequence (P30613 whole entry R510Q): as the sequence (P30613 whole entry R532W) above, with R510Q, W532R counted along it
T1 sequence (P30613 whole entry): as the sequence (P30613 whole entry R532W) above, with W532R counted along it

O=C(c1ccc(NS(=O)(=O)c2cccc3nccnc23)cc1)N1CCC(O)(CCCC(F)(F)F)CC1
< 100 nM: Pyruvate kinase PKLR [1] | Pyruvate kinase PKLR [2] | Pyruvate kinase PKLR [3] | Pyruvate kinase PKLR [4]

CC(C)(C)CC1(O)CCN(C(=O)c2ccc(NS(=O)(=O)c3ccc(F)c4cccnc34)cc2)CC1
< 100 nM: Pyruvate kinase PKLR [1] | Pyruvate kinase PKLR [2] | Pyruvate kinase PKLR [3] | Pyruvate kinase PKLR [4]

O=C(c1ccc(NS(=O)(=O)c2cccc3cccnc23)cc1)N1CCC(O)(c2ccccc2C(F)F)CC1
< 100 nM: Pyruvate kinase PKLR [1] | Pyruvate kinase PKLR [2] | Pyruvate kinase PKLR [3] | Pyruvate kinase PKLR [4]

CC(C)CC1(O)CCN(C(=O)c2ccc(NS(=O)(=O)c3cccc4scnc34)cc2)CC1
< 100 nM: Pyruvate kinase PKLR [1] | Pyruvate kinase PKLR [2] | Pyruvate kinase PKLR [3] | Pyruvate kinase PKLR [4]

CC(C)CC1(O)CCN(C(=O)c2ccc(NS(=O)(=O)c3cc(F)cc4sc(N)nc34)cc2)CC1
< 100 nM: Pyruvate kinase PKLR [1] | Pyruvate kinase PKLR [2] | Pyruvate kinase PKLR [3] | Pyruvate kinase PKLR [4]

Cc1nscc1CC1(O)CCN(C(=O)c2ccc(NS(=O)(=O)c3cccc4scnc34)cc2)CC1
< 100 nM: Pyruvate kinase PKLR [1] | Pyruvate kinase PKLR [2] | Pyruvate kinase PKLR [3] | Pyruvate kinase PKLR [4]

O=C(c1ccc(NS(=O)(=O)c2cccc3cccnc23)cc1)N1CCC(O)(Cc2ccccc2F)CC1
< 100 nM: Pyruvate kinase PKLR [1] | Pyruvate kinase PKLR [2] | Pyruvate kinase PKLR [3] | Pyruvate kinase PKLR [4]
